Data reported in publication PMC9108603, “Microbial Metabolite Inspired β‐Peptide Polymers Displaying Potent and Selective Antifungal Activity” (Advanced Science, 2022).

Key:
[1] = system: C. albicans (K1 strain); experiment: Intracellular ROS detection (DCFH fluorescence); assay type: cell-based, Candida albicans; conditions: DCF fluorescence, positive control 40 mM H2O2; rises with time and PDAP20 concentration
Procedure: Energy depletion analysis. For energy depletion experiments, cell suspension of C. albicans (K1 strain) at 3.0 × 10^6 CFU/mL was pretreated with RPMI containing 5 mM NaN 3 for 1 h. For antifungal efficiency assay, a fresh cell suspension pretreated or non-pretreated with NaN 3 were incubated with 50 μg/mL PDAP 20 or without an antifungal agent (as energy depletion control) for 24 h. The fresh cell suspension without antifungal agents before and after incubation with NaN 3 for 24 h were used as the controls, respectively. The suspensions were diluted and plated on YPD agar. The plates were incubated at 30 °C for 24 h and colony amounts were counted. The cell viability after incubation at 4 °C with 50 μg/mL PDAP 20 or without an antifungal agent (as positive control) was measured using the same method. […]
For flow cytometry experiment, a fresh cell suspension pretreated or non-pretreated with NaN 3 was incubated with 50 μg/mL CPM-PDAP 20 for 1 h and 2 h, respectively. Fungal cells were washed by PBS to remove polymers, and 5.0 × 10^4 cells were counted and anaysized. The polymer uptake was calculated by flow cytometry (Backman). Furthermore, cell suspensions were incubated with 10 μg/mL PI for 10 min for calculated PI uptake. […]
(§1) DNA fragmentation assay. Apoptosis induced DNA fragments in C. albicans cells were analyzed using the TdT-mediated dUTP Nick-End Labeling (TUNEL) method. […]

[2] = system: C. albicans biofilm formation; experiment: Inhibition of biofilm formation (MTT); assay type: cell-based, Candida albicans; conditions: RPMI, 37 °C, 48 h, inhibits 80% of biofilm formation
Procedure: fresh non-treated cell suspension was used as a control. The bright field and FITC fluorescence were collected under 100× oil immersion lenses, with representative areas in the images electronically amplified sixfold.
Anti-biofilms. This study was conducted in 96-well plates (flat bottom and tissue-culture treated) by following the reported protocol with slight modifications. On each plate, wells containing RPMI only and cells in medium without any antifungal agent were used as the negative and positive control, respectively.
For biofilm formation: Freshly cultured fungal cells were collected to prepare the working suspension at 1.0 × 10^6 CFU/mL in RPMI. A two-fold serial dilution for each antifungal agent was prepared using a corresponding medium in a 96-well plate to give 100 µL of polymer solution in each well. 100 µL of the working suspension was added to each […]
followed by addition of 100 µL MTT solution (1 mg/mL). The MTT assay protocol was the same as the above mentioned protocol in fibroblast cell toxicity assay. This value was calculated from [% biofilm growth = (A polymer – Ablank)/(Acontrol – Ablank) × 100] and plotted against polymer concentration to give the dose-response graphs for inhibition of biofilm formation for each antifungal agent. The SMIC 80 value is the minimum concentration of a given agent that is necessary to inhibit 80% of fungal biofilm formation. […]

[3] = system: Gram‐positive and Gram‐negative bacteria; experiment: Antibacterial MIC test, summary over six bacteria; assay type: cell-based; conditions: S. aureus, S. epidermidis, B. subtilis, E. coli, A. baumannii, K. pneumoniae
Text: aforementioned antifungal assay. Gram-positive bacteria ( S. aureus ATCC 6538, S.

[4] = system: C. albicans (K1 strain); experiment: DNA fragmentation assay (TUNEL); assay type: cell-based, Candida albicans; conditions: 50 μg/mL PDAP20, 8 h, 3.0 × 10^6 CFU/mL; late stage of apoptosis
Procedure: NAC concentration without affecting the normal cell growth. Wells containing cells in RPMI and 40 mM H 2O2 was used as positive controls. Cell suspension of C. albicans (K1 strain) at 6.0 × 10^6 CFU/mL was treated with 20 μM 2,7-dichlorodi-hydrofluorescein diacetate (DCFHDA) for 20 min. Then 50 µL of the cell suspension was added to each well, except the blank control (RMPI containing DCFHDA without cells). The fluorescence intensity of the induced ROS production was measured every 30 min using a plate reader at λ ex = 485 nm and λem = 530 nm. […]
Detection of mitochondrial membrane potential. Changes in mitochondrial membrane potential in C. albicans after incubation with PDAP 20 were analyzed using JC-1 as previously described. Mitochondrial membrane potential was detected with the fluorescent dye JC-1, which exists as aggregates (red) in normal cells with polarized mitochondria, whereas exists as monomers (green) in apoptotic cells with depolarized mitochondria. […]
as §1
fresh non-treated cell suspension was used as a control. The bright field and FITC fluorescence were collected under 100× oil immersion lenses, with representative areas in the images electronically amplified sixfold. […]

[5] = system: C. albicans (R02 strain); experiment: microbe, parasite or virus in culture; assay type: cell-based, Candida albicans; conditions: C. albicans R02; 0.5 × MIC of PDAP20 or 0.5 × MIC50 of fluconazole; 30 passages; duplicates
Procedure: Drug resistance studies. Drug resistance was induced by treating the C. albicans (R02 strain) repeatedly with antifungal agents. […]
albicans were tested for 30 passages of growth, which is long enough and adopted by many studies. C. albicans exposed to the 1/2 MIC concentration at the particular passage were re-grown to a logarithmic growth phrase and re-used for the subsequent passage’s MIC measurement for the same antifungal agent. Drug-resistant behavior of C. albicans was evaluated by recording the changes in the MIC compared to the original passage. All measurements were performed in duplicates. […]

poly(DL‐diaminopropionic acid) [PDAP20]
Intracellular ROS level [1]: higher than that of the hydrogen peroxide‐treated fungal cells
Concentration that resists biofilm formation (SMIC80) [2]: 6.3 µg/mL
MIC against the six bacteria (summary) [3]: greater than 50 µg mL^−1
DNA fragmentation, TUNEL [4]: strong green cytosol fluorescence
Development of drug resistance on continuous treatment [5]: didn't acquire resistance
